System: Trypanosoma cruzi
Test: Trypanocidal effect on bloodstream trypomastigotes of Trypanosoma cruzi; ED50/24h
Format: functional

`CN(C)c1ccc(C(=C2C=CC(=[N+](C)C)C=C2)c2ccc(N(C)C)cc2)cc1` showed an ED50 of 536 µM.

`CC1(C)CCc2c(c3ccccc3c3nc4cc(Nc5ccccc5)/c(=N/c5ccccc5)cc-4n(-c4ccccc4)c23)O1` was tested, and the ED50 was 61.3 µM.

Reference: ChEMBL document CHEMBL1135751, “A trypanocidal phenazine derived from beta-lapachone” (2002)
